The test concerns P388 leukemia ip, CD2F1 mice, survival T/C. Nature of the test: NCI In Vivo Anticancer Drug Screen. Data for tumor model P388 Leukemia (intraperitoneal) in CD2F1 (CDF1) mice. As to conditions: endpoint: median survival time, higher = longer survival. In outline:
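Mice carrying the transplanted tumor received test compound or vehicle. Survival was recorded in each group, and the value is the treated-group measurement divided by that of the vehicle-treated control group.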

The mark [1] stands for this setting: dose: 50.0 mg/kg/injection, schedule: Q01DX009 (ip), vehicle: saline with Tween-80.
Setting [2] is: dose: 100.0 mg/kg/injection, schedule: Q01DX009 (ip), vehicle: saline with Tween-80.
The mark [3] stands for this setting: dose: 200.0 mg/kg/injection, schedule: Q01DX009 (ip), vehicle: saline with Tween-80.
Where [4] appears, read: dose: 60.0 mg/kg/injection, schedule: Q01DX005 (ip), vehicle: saline with Tween-80.
The mark [5] stands for this setting: dose: 120.0 mg/kg/injection, schedule: Q01DX005 (ip), vehicle: saline with Tween-80.
The mark [6] stands for this setting: dose: 50.0 mg/kg/injection, schedule: Q01DX005 (ip), vehicle: saline with Tween-80.
[7] abbreviates: dose: 100.0 mg/kg/injection, schedule: Q01DX005 (ip), vehicle: saline with Tween-80.
Setting [8] is: dose: 200.0 mg/kg/injection, schedule: Q01DX005 (ip), vehicle: saline with Tween-80.
Setting [9] is: dose: 25.0 mg/kg/injection, schedule: Q01DX009 (ip), vehicle: saline with Tween-80.

Among the data in PubChem BioAssay AID330 (DTP/NCI, 2004) are T/C values, retold here.

Several values for one entry are separate records, joined by “and”; a condition that tells them apart may be missing. Equal entries are not always repeated. Inconclusive results and toxic doses are left out.

Take `COc1ccc2c(Nc3ccc(NS(C)(=O)=O)cc3)c3ccccc3nc2c1`: the T/C is, setting by setting: (dose: 0.07 mg/kg/injection, schedule: Q01DX009 (ip), vehicle: saline) 99 % of control; (dose: 0.1 mg/kg/injection, schedule: Q01DX009 (ip), vehicle: saline) 113 % of control; (dose: 0.15 mg/kg/injection, schedule: Q01DX009 (ip), vehicle: saline) 116 % of control; (dose: 0.23 mg/kg/injection, schedule: Q01DX009 (ip), vehicle: saline) 122 % of control; (dose: 1.1 mg/kg/injection, schedule: Q04DX003 (ip), vehicle: saline with Tween-80) 119 % of control; (dose: 2.5 mg/kg/injection, schedule: Q01DX009 (ip), vehicle: saline with Tween-80) 164 % of control. Further, the T/C was 194 % of control (dose: 5.0 mg/kg/injection, schedule: Q01DX009 (ip), vehicle: saline with Tween-80); 218 % of control (dose: 9.38 mg/kg/injection, schedule: Q01DX009 (ip), vehicle: saline with Tween-80); 270 % of control (dose: 10.0 mg/kg/injection, schedule: Q01DX009 (ip), vehicle: saline with Tween-80); 163 % of control (dose: 13.2 mg/kg/injection, schedule: Q04DX003 (ip), vehicle: saline with Tween-80); 97 % of control (dose: 18.7 mg/kg/injection, schedule: Q01DX009 (ip), vehicle: saline with Tween-80); 168 % of control (dose: 20.0 mg/kg/injection, schedule: Q04DX003 (ip), vehicle: saline with Tween-80). Further, the T/C is 175 % of control (dose: 22.0 mg/kg/injection, schedule: Q04DX003 (ip), vehicle: saline with Tween-80); 200 % of control (dose: 30.0 mg/kg/injection, schedule: Q04DX003 (ip), vehicle: saline with Tween-80); 204 % of control (dose: 33.0 mg/kg/injection, schedule: Q04DX003 (ip), vehicle: saline with Tween-80); 216 % of control (dose: 50.0 mg/kg/injection, schedule: Q04DX003 (ip), vehicle: saline with Tween-80); 237 % of control (dose: 75.0 mg/kg/injection, schedule: Q04DX003 (ip), vehicle: saline with Tween-80).

For the molecule `[O-][n+]1nc(Cl)nc2ccccc21`, the T/C was 105 % of control (dose: 10.0 mg/kg/injection, schedule: Q01DX009 (ip), vehicle: Klucel (hydroxypropylcellulose) (HPC)) and 107 % of control (dose: 20.0 mg/kg/injection, schedule: Q01DX009 (ip), vehicle: Klucel (hydroxypropylcellulose) (HPC)).

Regarding `CCN(CC)CCOCC(=O)Nc1c(C)cccc1Cl`, the T/C (dose: 50.0 mg/kg/injection, schedule: Q04DX003 (ip), vehicle: saline) is 102 % of control and 113 % of control and 96 % of control; the T/C (dose: 100.0 mg/kg/injection, schedule: Q04DX003 (ip), vehicle: saline) was 100 % of control and 101 % of control and 120 % of control; the T/C (dose: 200.0 mg/kg/injection, schedule: Q04DX003 (ip), vehicle: saline) was 88 % of control and 92 % of control and 95 % of control.

Turning to `CC(NC(=O)C(CO)NC(=O)CN)C(=O)O` (configuration not stated), the T/C runs as follows: (dose: 50.0 mg/kg/injection, schedule: Q01DX005 (ip), vehicle: saline) 101 % of control; (dose: 100.0 mg/kg/injection, schedule: Q01DX005 (ip), vehicle: saline) 99 % of control; (dose: 200.0 mg/kg/injection, schedule: Q01DX005 (ip), vehicle: saline) 105 % of control.

As to `COc1cc(OC)c(NC(=O)Oc2cc(C)c(Br)c(C)c2)cc1Cl`, the T/C under setting [1] is 91 % of control, the T/C under setting [2] is 95 % of control and the T/C under setting [3] is 108 % of control.

Regarding `CNC(=O)NCCCCCCNC(=O)NC`, the T/C runs as follows: (dose: 50.0 mg/kg/injection, schedule: Q01DX005 (ip), vehicle: Klucel (hydroxypropylcellulose) (HPC)) 99 % of control and 95 % of control; (dose: 100.0 mg/kg/injection, schedule: Q01DX005 (ip), vehicle: Klucel (hydroxypropylcellulose) (HPC)) 87 % of control and 95 % of control; (dose: 200.0 mg/kg/injection, schedule: Q01DX005 (ip), vehicle: Klucel (hydroxypropylcellulose) (HPC)) 89 % of control.

On to `OC1C=C2CCN3Cc4cc5c(cc4C(C1O)C23)OCO5` (configuration not stated), for which the T/C is, setting by setting: (dose: 8.75 mg/kg/injection, schedule: Q01DX009 (ip), vehicle: Klucel (hydroxypropylcellulose) (HPC)) 96 % of control; (dose: 17.5 mg/kg/injection, schedule: Q01DX009 (ip), vehicle: Klucel (hydroxypropylcellulose) (HPC)) 96 % of control; (dose: 35.0 mg/kg/injection, schedule: Q01DX009 (ip), vehicle: Klucel (hydroxypropylcellulose) (HPC)) 106 % of control; (dose: 70.0 mg/kg/injection, schedule: Q01DX009 (ip), vehicle: Klucel (hydroxypropylcellulose) (HPC)) 109 % of control.

For the molecule `CCCCCCCC[N+](C)(C)Cc1ccc(Oc2ccc(C[N+](C)(C)CCCCCCCC)cc2)cc1`, the T/C is 108 % of control (dose: 6.25 mg/kg/injection, schedule: Q04DX003 (ip), vehicle: saline); 110 % of control (dose: 12.5 mg/kg/injection, schedule: Q04DX003 (ip), vehicle: saline); 110 % of control (dose: 25.0 mg/kg/injection, schedule: Q04DX003 (ip), vehicle: saline).

With `COc1ccc(/C=N\N=C(/[O-])c2ccccc2O)cc1.COc1ccc(/C=N\N=C(/[O-])c2ccccc2O)cc1.[Ni+2]`, the T/C (dose: 50.0 mg/kg/injection, schedule: Q04DX002 (ip), vehicle: saline with Tween-80) was 93 % of control; the T/C (dose: 100.0 mg/kg/injection, schedule: Q04DX002 (ip), vehicle: saline with Tween-80) was 86 % of control; the T/C (dose: 200.0 mg/kg/injection, schedule: Q04DX002 (ip), vehicle: saline with Tween-80) is 88 % of control.

For `Cc1nn(C)c(=O)c(N)c1-c1cc(-c2ccc(Cl)cc2)n[nH]1`, the T/C under setting [4] was 89 % of control and the T/C under setting [5] is 88 % of control.

For the molecule `O=C(CCl)N1c2ccc3ccccc3c2Sc2ccc3ccccc3c21`, the T/C (dose: 6.25 mg/kg/injection, schedule: Q01DX005 (ip), vehicle: saline with Tween-80) was 96 % of control; the T/C (dose: 12.5 mg/kg/injection, schedule: Q01DX005 (ip), vehicle: saline with Tween-80) was 101 % of control; the T/C (dose: 25.0 mg/kg/injection, schedule: Q01DX005 (ip), vehicle: saline with Tween-80) is 95 % of control; the T/C under setting [6] was 98 % of control; the T/C under setting [7] was 97 % of control; the T/C under setting [8] is 105 % of control.

As for `COc1ccc(C(=O)ON(c2ccccc2)C(C)(C)C)cc1`, the T/C is 97 % of control under setting [9], 103 % of control under setting [1] and 97 % of control under setting [2].

As for `O=C(O)CSCc1nc2ccccc2[nH]1`, the T/C is, setting by setting: (dose: 100.0 mg/kg/injection, schedule: Q01DX001 (ip), vehicle: saline with Tween-80) 95 % of control; (dose: 200.0 mg/kg/injection, schedule: Q01DX001 (ip), vehicle: saline with Tween-80) 90 % of control; (dose: 400.0 mg/kg/injection, schedule: Q01DX001 (ip), vehicle: saline with Tween-80) 100 % of control.

Regarding `O=c1[nH]cc(B(O)O)c(=O)[nH]1`, the T/C reads like this: (dose: 100.0 mg/kg/injection, schedule: Q01DX009 (ip), vehicle: saline) 106 % of control; (dose: 200.0 mg/kg/injection, schedule: Q01DX009 (ip), vehicle: saline) 113 % of control; (dose: 400.0 mg/kg/injection, schedule: Q01DX009 (ip), vehicle: saline) 113 % of control.

Turning to `Cc1ccccc1C(=O)NC1c2ccccc2Oc2ccccc21`, the T/C runs as follows: under setting [6], 100 % of control; under setting [7], 100 % of control; under setting [8], 100 % of control.

Consider `CCCCCCCOCC(=O)OC`, for which the T/C is, setting by setting: under setting [1], 109 % of control; under setting [2], 108 % of control; under setting [3], 101 % of control.

Regarding `CC1(C)CC2(C)OC2C2(C1)N=NC(=Nc1ccccc1)O2` (configuration not stated), the T/C reads like this: under setting [1], 105 % of control and 92 % of control; under setting [2], 120 % of control and 97 % of control; under setting [3], 108 % of control.

In the case of `C=C1C2CCC3(C)C(c4ccoc4)OC(=O)CC13OC1CC(=O)C(C)(C)C(CC(=O)OC)C12C` (configuration not stated), the T/C under setting [9] was 99 % of control, the T/C under setting [1] was 99 % of control, the T/C under setting [2] was 99 % of control and the T/C under setting [3] was 98 % of control.

With `CC(O)CN(Cc1c(O)ccc2ccccc12)CC(C)O` (configuration not stated), the T/C is 108 % of control under setting [6], 110 % of control under setting [7] and 99 % of control under setting [8].

Regarding `Cc1cc(=O)c2c(=O)n(-c3ccccc3)[nH]c2[nH]1`, the T/C was 111 % of control under setting [4]; 109 % of control under setting [5]; 100 % of control (dose: 240.0 mg/kg/injection, schedule: Q01DX005 (ip), vehicle: saline with Tween-80).
